The source of these data is US20230270870A1, “DOSAGE OF AN ANTIBODY-DRUG CONJUGATE” (DAIICHI SANKYO COMPANY, LIMITED, priority 2019, published 2023).

Like-named read-outs stand apart in the source and are kept apart here.

Series [1] relates to NSCLC. To be noted: NSCLC progressed during or after platinum-based doublet chemotherapy, N=290; cited from earlier work.
Series [2] deals with NSCLC. To be noted: phase 2, subjects who received standard of care; cited from earlier work.
Series [3] is described as follows: Phase 1 clinical study: pharmacokinetics. In kind it is in vivo. As to conditions: human, plasma, intravenous. On the procedure:
Preliminary single- and multiple-dose PK were evaluated using noncompartmental analysis in 61 subjects who received DS-1062a (0.27 mg/kg to 10 mg/kg).

A further series deals with T1, topoisomerase I (Homo sapiens, UniProt P11387).
T1 sequence (P11387 1-765): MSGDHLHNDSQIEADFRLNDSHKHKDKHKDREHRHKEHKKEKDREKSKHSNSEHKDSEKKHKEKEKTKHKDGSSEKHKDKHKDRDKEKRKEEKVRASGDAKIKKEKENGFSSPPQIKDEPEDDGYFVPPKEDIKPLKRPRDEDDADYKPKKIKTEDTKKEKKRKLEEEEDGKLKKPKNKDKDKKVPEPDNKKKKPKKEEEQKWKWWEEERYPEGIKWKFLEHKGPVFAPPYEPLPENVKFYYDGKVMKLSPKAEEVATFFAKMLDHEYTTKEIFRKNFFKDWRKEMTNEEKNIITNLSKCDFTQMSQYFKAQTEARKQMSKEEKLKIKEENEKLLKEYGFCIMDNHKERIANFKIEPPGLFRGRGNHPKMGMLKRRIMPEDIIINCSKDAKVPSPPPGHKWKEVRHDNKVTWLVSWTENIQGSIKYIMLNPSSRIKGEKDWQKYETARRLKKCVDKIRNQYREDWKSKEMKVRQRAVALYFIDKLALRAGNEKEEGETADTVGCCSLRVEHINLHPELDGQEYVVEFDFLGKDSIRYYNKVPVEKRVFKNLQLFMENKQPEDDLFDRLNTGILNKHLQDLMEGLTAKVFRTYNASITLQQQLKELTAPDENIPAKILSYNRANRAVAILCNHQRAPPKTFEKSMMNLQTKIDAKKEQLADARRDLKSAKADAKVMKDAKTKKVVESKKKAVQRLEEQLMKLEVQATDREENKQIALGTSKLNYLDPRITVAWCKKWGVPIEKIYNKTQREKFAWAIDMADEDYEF
As to conditions: cited from earlier work.

`CC(=O)O[C@@]12CO[C@@H]1C[C@H](O)[C@@]1(C)C(=O)[C@H](O)C3=C(C)[C@@H](OC(=O)[C@H](O)[C@@H](NC(=O)OC(C)(C)C)c4ccccc4)C[C@@](O)([C@@H](OC(=O)c4ccccc4)[C@H]21)C3(C)C` [Docetaxel monotherapy, Docetaxel]: in the series on NSCLC [1], the DCR is given as 54.0% (158/290) (not provided) and the ORR is listed as 12.0% (36/290) (9.0% to 17.0%).

Sactizumab govitecan: the ORR in the series on NSCLC [2] is 19%.

In the case of `CC[C@@]1(O)C(=O)OCc2c1cc1n(c2=O)Cc2c-1nc1cc(F)c(C)c3c1c2[C@@H](NC(=O)CO)CC3` [Compound 1, HO—CH2—C(═O)—(NH—DX)], the “exposure of released drug compared with DS-1062a” value in series [3] was “lower than that of DS-1062a”. Moreover, the “topoisomerase I inhibitory effect” value at topoisomerase I is “topoisomerase I inhibitory effect”.
